Literature values in paper PMC6311893, “Computational prediction of plasma protein binding of cyclic peptides from small molecule experimental data using sparse modeling techniques” (BMC Bioinformatics, 2018).

tested on: plasma protein; conditions: fraction bound to plasma protein; small molecule dataset, sheet 1-SM (Set Dte = test, Dtr = training); ref Ingle et al.; cited from earlier work

Compound | PPB (fb)
CC1(C)SC2C(NC(=O)C(N=[N+]=[N-])c3ccccc3)C(=O)N2C1C(=O)O (centres unmarked) [azidocillin] | 0.8
Cc1onc(-c2ccccc2Cl)c1C(=O)N[C@@H]1C(=O)N2[C@@H]1SC(C)(C)[C@@H]2C(=O)O [cloxacillin] | 0.95
Cc1cc2c(OCC(CNC(C)(C)C)OC(=O)c3ccccc3)cccc2[nH]1 (centres unmarked) [bopindolol] | 0.65
C[C@](N)(Cc1ccc(O)c(O)c1)C(=O)O [Methyldopa] | 0.13
COc1ccc(C(=O)N2CCCC2=O)cc1 [aniracetam] | 0.66
CCN1CCCC1CNC(=O)c1cc(S(=O)(=O)CC)c(N)cc1OC (centres unmarked) [amisulpride] | 0.16
CCN(CC)CCNC(=O)c1cc(Cl)c(N)cc1OC [Metoclopramide] | 0.37
COc1cccc(OC)c1CC(=O)NC1C(=O)N2C1SC(C)(C)C2C(=O)O (centres unmarked) [penicillin18] | 0.77
NCCc1ccc(O)c(O)c1 [dopamine] | 0.1
CNS(=O)(=O)CCc1ccc2[nH]cc(C3CCN(C)CC3)c2c1 [Naratriptan] | 0.29
CCCCCN(C)CCC(O)(P(=O)(O)O)P(=O)(O)O [Ibandronic Acid (Ibandronate)] | 0.85
NC(=O)N1c2ccccc2C=Cc2ccccc21 [carbamazepine] | 0.75
CO/N=C(\C(=O)N[C@@H]1C(=O)N2C(C(=O)OCOC(=O)C(C)(C)C)=C(/C=C\c3scnc3C)CS[C@H]12)c1csc(N)n1 [cefditoren-pivoxil] | 0.88
C[C@]12C=CC(=O)C=C1C(Cl)=C[C@@H]1[C@@H]2[C@@H](O)C[C@@]2(C)[C@H]1CC[C@]2(O)C(=O)CO [cloprednol] | 0.8
Cc1c(N(C)CS(=O)(=O)O)c(=O)n(-c2ccccc2)n1C [dipyrone] | 0.6
Cc1nc2n(c(=O)c1CCN1CCC(c3noc4cc(F)ccc34)CC1)CCCC2O (centres unmarked) [9-Hydroxyrisperidone] | 0.77
CCOC(=O)n1ccn(C)c1=S [carbimazole] | 0.07
O=c1[nH]c2ccccc2n1C1CCN(CCCC(c2ccc(F)cc2)c2ccc(F)cc2)CC1 [pimozide] | 0.95
COCC1CN(c2ccc(OCc3cccc(C#N)c3)cc2)C(=O)O1 (centres unmarked) [cimoxatone] | 0.94
CCn1cc(C(=O)O)c(=O)c2cc(F)c(N3CCNC(C)C3)c(F)c21 (centres unmarked) [lomefloxacin] | 0.12
Clc1ccc(COC(Cn2ccnc2)c2ccc(Cl)cc2Cl)c(Cl)c1 (centres unmarked) [miconazole] | 0.95
NCCCNCCSP(=O)(O)O [amifostine] | 0.04
Sc1ncnc2nc[nH]c12 [Mercaptopurine] | 0.17
CC(C)(C)N1CCC(c2ccccc2)(c2ccccc2)CC1 [budipine] | 0.96
C[C@@H]1CCC[C@H](C)N1NC(=O)c1ccc(Cl)c(S(N)(=O)=O)c1 [clopamide] | 0.5

same assay, conditions: fraction bound to plasma protein; small molecule dataset, sheet 1-SM, Set Dtr; ref Ingle et al.; cited from earlier work

Compound | PPB (fb)
CCC(O)(C(=O)O)c1cc2n(c(=O)c1CO)Cc1cc3c(CN(C)C)c(O)ccc3nc1-2 (centres unmarked) [Topotecan Carboxylic Acid] | 0.07
CC(C)NCC(O)COc1ccc(CCOCC2CC2)cc1 (centres unmarked) [Betaxolol] | 0.56
NCc1ccccc1CC(=O)N[C@@H]1C(=O)N2C(C(=O)O)=C(CSc3nnnn3CC(=O)O)CS[C@H]12 [Ceforanide] | 0.81
CN(C)CCCN1c2ccccc2CCc2ccccc21 [Imipramine] | 0.9
Nc1nc2c(ncn2CCC(CO)CO)c(=O)[nH]1 [Penciclovir] | 0.13
C#C[C@]1(O)CC[C@H]2[C@@H]3CCc4cc(O)ccc4[C@H]3CC[C@@]21C [Ethinylestradiol] | 0.97
COc1ccc2c(c1)c(CC(=O)O)c(C)n2C(=O)c1ccc(Cl)cc1 [Indomethacin] | 0.97
Fc1ccc([C@@H]2CCNC[C@H]2COc2ccc3c(c2)OCO3)cc1 [Paroxetine] | 0.94
CC(=O)Oc1ccccc1C(=O)O [Aspirin] | 0.43
CCN(CC)C(=O)/C(C#N)=C/c1cc(O)c(O)c([N+](=O)[O-])c1 [Entacapone] | 0.98
C[C@]12CCC(=O)C=C1CC[C@@H]1[C@@H]2[C@@H](O)C[C@@]2(C)[C@H]1CC[C@]2(O)C(=O)CO [Hydrocortisone] | 0.8
CCCNC(=O)NS(=O)(=O)c1ccc(Cl)cc1 [Chlorpropamide] | 0.96
Cc1ccccc1N1C(=O)c2cc(S(N)(=O)=O)c(Cl)cc2NC1C (centres unmarked) [Metolazone] | 0.95
CNCC[C@@H](Oc1ccccc1C)c1ccccc1 [Atomoxetine] | 0.97
CCN(CCO)CCCC(C)Nc1ccnc2cc(Cl)ccc12 (centres unmarked) [Hydroxychloroquine] | 0.46
CC(C)[C@H](N)C(=O)OCCOCn1cnc2c(=O)[nH]c(N)nc21 [valacyclovir] | 0.18
C[C@]12CC[C@@H]3c4ccc(O)cc4CC[C@H]3[C@@H]1CC[C@@H]2O [Estradiol] | 0.984
CCCCCCCN(CC)CCCC(O)c1ccc(NS(C)(=O)=O)cc1 (centres unmarked) [Ibutilide] | 0.4
CCN(CC)CCCC(C)Nc1ccnc2cc(Cl)ccc12 (centres unmarked) [Chloroquine] | 0.58

same assay, conditions: fraction bound to plasma protein; small molecule dataset, sheet 1-SM; ref Ingle et al.; cited from earlier work

Compound | PPB (fb)
C[C@@H](O)[C@H]1C(=O)N2C(C(=O)O)=C(SCCOC(N)=O)S[C@H]12 [Sch34343] | 0.65
CC(C(=O)NCCN1CCCC1)c1ccc(OS(=O)(=O)C(F)(F)F)cc1 (centres unmarked) [JMC_04] | 0.7
Nc1ccc(O)c(C(=O)O)c1 [mesalamine] | 0.45
CC(Oc1c(Cl)cccc1Cl)C(=O)NC1C(=O)N2C1SC(C)(C)C2C(=O)O (centres unmarked) [penicillin57] | 0.96
CCCCNc1ccc(C(=O)OCCN(C)C)cc1 [tetracaine] | 0.85
CCOC(=O)[C@H](CCc1ccccc1)N[C@@H](C)C(=O)N1C(=O)N(C)C[C@H]1C(=O)O [imidapril] | 0.2
CC(C(N)=O)c1ccc(OS(=O)(=O)C(F)(F)F)cc1 (centres unmarked) [JMC_03] | 0.92
COC(C(=O)NC1C(=O)N2C1SC(C)(C)C2C(=O)O)c1ccc(Cl)c(Cl)c1 (centres unmarked) [penicillin56] | 0.95
CC(=O)CCCCn1c(=O)c2c(ncn2C)n(C)c1=O [pentoxifylline] | 0
Cc1ncc([N+](=O)[O-])n1CC(O)CCl (centres unmarked) [ornidazole] | 0.15
Nc1ccc(S(=O)(=O)Nc2ncccn2)cc1 [Sulfadiazine] | 0.45
CC(C)NC[C@H](O)COc1ccc(O)cc1 [prenalterol] | 0.04
CC#C[C@]1(O)CC[C@H]2[C@@H]3CCC4=CC(=O)CCC4=C3[C@@H](c3ccc(N(C)C)cc3)C[C@@]21C [mifepristone] | 0.98
C[C@]12CCC(=O)C=C1CC[C@H]1[C@@H]3CC[C@](O)(C(=O)CO)[C@@]3(C)C[C@H](O)[C@@]12F [fludrocortisone] | 0.75
CC(C)(C)NC(=O)[C@@H]1C[C@@H]2CCCC[C@@H]2CN1C[C@@H](O)[C@H](Cc1ccccc1)NC(=O)[C@H](CC(N)=O)NC(=O)c1ccc2ccccc2n1 [Saquinavir] | 0.98
C=C(CC(=O)c1ccc(-c2ccccc2Cl)cc1)C(=O)O [Itanoxone] | 0.98
CCCCCNC(=N)N/N=C/c1c[nH]c2ccc(OC)cc12 [Tegaserod] | 0.98
CC1(C)O[C@@H]2C[C@H]3[C@@H]4CCC5=CC(=O)C=C[C@]5(C)[C@@]4(F)[C@@H](O)C[C@]3(C)[C@]2(C(=O)CO)O1 [Triamcinolone Acetonide] | 0.8
CCC(OC)C(=O)NC1C(=O)N2C1SC(C)(C)C2C(=O)O (centres unmarked) [penicillin9] | 0.2
Cc1ccc(N(CC2=NCCN2)c2cccc(O)c2)cc1 [phentolamine] | 0.54
COc1cc2c(cc1OC)C1CC(=O)C(CC(C)C)CN1CC2 (centres unmarked) [tetrabenazine] | 0.85
CCN(CC)CCNC(=O)c1cc(S(C)(=O)=O)ccc1OC [tiapride] | 0
COC(C(=O)NC1C(=O)N2C1SC(C)(C)C2C(=O)O)c1cc(Cl)c(Cl)c(Cl)c1 (centres unmarked) [penicillin43] | 0.96
C[n+]1ccccc1/C=N/O [pralidoxime chloride] | 0.05
CNc1nc(N(C)C)nc(N(C)C)n1 [pentamethylmelamine] | 0.75
CCN(CC)CCOC(=O)c1ccc(N)cc1 [procaine] | 0.06
NC[C@H](O)c1ccc(O)c(O)c1 [norepinephrine] | 0.5
CCn1cc(C(=O)O)c(=O)c2cnc(N3CCNCC3)nc21 [pipemidic acid] | 0.3

same assay, conditions: plasma; cited from earlier work

Compound | PPB (fb)
CC(C)(C)NCC(O)c1cc(Cl)c(N)c(Cl)c1 (centres unmarked) [clenbuterol] | 0.5
lymecycline | 0.45
CCCN(CCC)CCc1cccc2c1CC(=O)N2 [ropinirole] | 0.4
CCN(CC)C(=O)[C@@H]1C=C2c3cccc4[nH]cc(c34)C[C@H]2N(C)C1 [lysergide] | 0.9
salvianolic acid B | 0.75
O=C1CN=C(c2ccccc2Cl)c2cc([N+](=O)[O-])ccc2N1 [Clonazepam] | 0.85
C[C@]12CC[C@H](O)C[C@H]1CC[C@@H]1[C@@H]2CC[C@]2(C)[C@@H](C3=CC(=O)OC3)CC[C@]12O [Digitoxigenin] | 0.93
idoxuridine | 0
CCCCC1(CC)C(=O)NC(=O)NC1=O [butobarbital] | 0.26
ClC1=C(Cl)[C@]2(Cl)[C@@H]3[C@@H]4C[C@@H]([C@H]5O[C@@H]45)[C@@H]3[C@@]1(Cl)C2(Cl)Cl [dieldrin] | 0.99
Fc1ccccc1C1=NCC(=S)N(CC(F)(F)F)c2ccc(Cl)cc21 [quazepam] | 0.95
Nimodipine | 0.98
CCCC(C)(COC(N)=O)COC(=O)NC(C)C (centres unmarked) [carisoprodol] | 0.58
Iloprost | 0.6
Cefmetazole | 0.77
O=C(O)C1N=C(c2ccccc2)c2cc(Cl)ccc2NC1=O (centres unmarked) [clorazepic acid] | 0.91
C[C@]12COC(=O)C[C@@H]1CC[C@@H]1[C@@H]2CC[C@@]2(C)[C@H]1CC[C@]2(C)O [oxandrolone] | 0.95
